Test results from paper PMC9045296, “Development of Antifungal Peptides against Cryptococcus neoformans; Leveraging Knowledge about the cdc50Δ Mutant Susceptibility for Lead Compound Development” (Microbiology Spectrum, 2022).
Converted amounts (≈) assume the structure as drawn. Residues, ends and D or L forms follow the SMILES beside them. *: point of attachment. Palmitoyl = CCCCCCCCCCCCCCCC(=O)*; Myristoyl = CCCCCCCCCCCCCC(=O)*; Decanoyl = CCCCCCCCCC(=O)*; Hexanoyl = CCCCCC(=O)*

Legend:
Format in all cases: cell-based, Cryptococcus neoformans
[1] = system: C. neoformans wild-type strain H99; assay: microbe, parasite or virus in culture; details: for MIC H99: Table S1, drug alone, wild type H99; for MIC: drug alone, H99 wild type, CLSI broth microdilution, RPMI, 2.5*10^3 cells/mL, 37°C, read at 24 and 48 h
Method: (§1) Our assays followed standard CLSI protocol for broth microdilution assays using yeasts ([32]). Microbes were passaged in YPD media at 37°C with mixing for 2 days before harvesting with an inoculation loop to prepare monocultures on Sabouraud Dextrose Agar (SDA) plates. Monocultures on SDA plates were incubated for 2 days at 37°C before harvesting cells for microdilution assays. RPMI media (100 μL) was charged to each of the 96 wells in a 96-well plate, with an additional 100 μL in the first column. Peptide-DMSO solution (4 μL) at 12.8 mg/mL was charged to each of the wells in the first column. The 100 μL was serially diluted by a factor of 2 from the first column to the 11th column. Microbe inoculant was then prepared. An inoculation loop was used to transfer 1–3 colonies of cells to 1 mL phosphate buffer solution (PBS). The PBS and microbe solution was made uniform by vortex mixing. Cell concentration was computed by comparing the absorbance at 530 nm to 1x McFarland standard solution and multiplying the resulting ratio by 10^7 cell/mL conversion factor. Plate inoculant was prepared by diluting the PBS microbe solution to 5000 cell/mL, in RPMI media. A 100 μL aliquot of cells was transferred to each of the wells on the plate other than column 11 for the no growth control. The operating volume was 200 μL, with 500 CFU per well for a final concentration of 2.5*10^3 cells/mL. Inoculated plates were incubated for 48 h at 37°C and read at 24 and 48 h ([33]).

[2] = system: C. neoformans H99; details: for MIC of caspofungin in the presence of 0.5 μg/mL peptide: H99, checkerboard, caspofungin alone 16 μg/mL; for FIC H99 Caspofungin: Table S1, concentration of caspofungin in combination with the peptide; for FIC H99 Peptide: Table S1, concentration of peptide in combination with caspofungin
Method: (§2) Again, 200 μL was the operating volume, 500CFU per well, 2.5*10^3 cell/mL. Plates were incubated for 48 h at 37°C and read thereafter. The Fractional Inhibitory Concentration Index were calculated in Equation 1: FICIndex=FICA/MICA+FICB/MICB

[3] = system: ΔCDC50 mutant strain; details: for FIC ΔCDC50 Caspofungin: Table S1, concentration of caspofungin in combination with the peptide; for FIC ΔCDC50 Peptide: Table S1, concentration of peptide in combination with caspofungin
Method: as §2

[4] = system: exofacial PS on C. neoformans cells; assay: AF350-annexin V flow cytometry assay; details: 0.128 mg/mL peptide, 5*10^6 cell/mL, 20 min at 25°C, triplicate; control 0.2 ± 0.1%
Description: We sought to determine whether the activities of the peptides were related to the lipid-flipping activity of the P4-ATPase. […] The intensity of the AF350-annexin V signal corresponds to concentration of PS on the exofacial side of the membrane. The propidium iodine signal corresponds to cell viability. […] Single cells were first selected and gated based on morphology to ensure homogeneity among the cell population (4A, 4B). We examined cells with low propidium iodine intensity (PI-A < 9 RU) and high AF350-annexin V intensity (Annexin V-A > 9 RU) (4C, 4D). Under these gating parameters there should be, respectively, low nonspecific cell death and high exofacial PS.
Stock microbes were defrosted from the –80°C freezer and were passed twice for 48 h each in YPD media. The YPD media was removed by spinning down and the supernatant was decanted. Pelletized cells were resuspended in 1 mL PBS media and washed for 5 min with incubation at 25°C and 250 RPM. Washed cells were spun down again and suspended in 1 mL of PBS solution. cells were diluted 20-fold into 1 mL fungal working solution in an eppendorf. Cell concentration was quantified via comparison to 1X McFarlain’s standard on a plate reader using the absorbance value at 530 nm. An aliquot of 1*10^6 cells in 100 μL was created (1*10^7cell/mL). A 100 μL aliquot of peptide working solution at 0.256 mg/mL was added to the cell suspension for final operating parameters of 200 μL, 0.128 mg/mL peptide, and 5*10^6cell/mL. The cells were incubated for 20 min at 25°C and 250RPM. Baseline and experimental samples were prepared in triplicate. Cells were stained using an operating concentration of 0.001 mg/mL Propidium Iodine (PI) and a 40-fold dilution of Alexa Fluor 350 labeled annexin V as per manufactures instructions. After staining the cells, samples were spun down and supernatant decanted. Cells were then fixed in 4% formaldehyde for 5 min. Fixed cells were spun down and supernatant decanted and resuspended in 400 μL 1% formaldehyde for flowcytometry. Samples were collected at a slow flow rate on a MACS Quant 10 device (Miltenyi Biotech, Auburn, CA) with 50,000 events collected per injection.

[5] = system: cdc50Δ mutant strain; details: Table S1, drug alone
Method: as §1

Molecule	MIC H99 [1] [µg/mL]	FIC H99 Caspofungin ([2]; H99) [µg/mL]	FIC H99 Peptide ([2]; H99) [µg/mL]	FIC ΔCDC50 Caspofungin [3] [µg/mL]	FIC ΔCDC50 Peptide [3] [µg/mL]	further results
CCCCCCCCCC(=O)N[C@@H](CO)C(=O)N[C@@H](CCC(=O)O)C(=O)N[C@@H](CO)C(=O)NCC(=O)N[C@H](C(=O)N[C@@H](C)C(=O)N[C@@H](Cc1c[nH]c2ccccc12)C(=O)NCC(=O)NCC(=O)N[C@H](C(=O)N[C@@H](CCCCN)C(=O)N[C@@H](CCCCN)C(=O)N[C@@H](CC(N)=O)C(=O)N[C@@H](Cc1ccc(O)cc1)C(=O)N[C@@H](C)C(=O)O)[C@@H](C)CC)[C@@H](C)CC [AS15-Da] (Decanoyl-SESGIAWGGIKKNYA-OH)	> 128					
CCCCCC(=O)N[C@@H](CO)C(=O)N[C@@H](CCC(=O)O)C(=O)N[C@@H](CO)C(=O)NCC(=O)N[C@H](C(=O)N[C@@H](C)C(=O)N[C@@H](Cc1c[nH]c2ccccc12)C(=O)NCC(=O)NCC(=O)N[C@H](C(=O)N[C@@H](CCCCN)C(=O)N[C@@H](CCCCN)C(=O)N[C@@H](CC(N)=O)C(=O)N[C@@H](Cc1ccc(O)cc1)C(=O)N[C@@H](C)C(=O)O)[C@@H](C)CC)[C@@H](C)CC [AS15-Ha] (Hexanoyl-SESGIAWGGIKKNYA-OH)	> 128					
CCCCCCCCCCCCCC(=O)N[C@@H](CO)C(=O)N[C@@H](CCC(=O)O)C(=O)N[C@@H](CO)C(=O)NCC(=O)N[C@H](C(=O)N[C@@H](C)C(=O)N[C@@H](Cc1c[nH]c2ccccc12)C(=O)NCC(=O)NCC(=O)N[C@H](C(=O)N[C@@H](CCCCN)C(=O)N[C@@H](CCCCN)C(=O)N[C@@H](CC(N)=O)C(=O)N[C@@H](Cc1ccc(O)cc1)C(=O)N[C@@H](C)C(=O)O)[C@@H](C)CC)[C@@H](C)CC [AS15-Ma] (Myristoyl-SESGIAWGGIKKNYA-OH)	> 128	8	0.5	0.25	0.25	MIC of caspofungin in the presence of 0.5 μg/mL peptide [2]: 8 µg/mL; percentage of cells with low propidium iodine (PI-A < 9 RU) and high AF350-annexin V intensity (Annexin V-A > 9 RU) [4]: 12.1 ± 2.0%; MIC ΔCDC50 [5]: 8 µg/mL (≈ 4.47 µM)
CCCCCCCCCCCCCCCC(=O)N[C@@H](CO)C(=O)N[C@@H](CCC(=O)O)C(=O)N[C@@H](CO)C(=O)NCC(=O)N[C@H](C(=O)N[C@@H](C)C(=O)N[C@@H](Cc1c[nH]c2ccccc12)C(=O)NCC(=O)NCC(=O)N[C@H](C(=O)N[C@@H](CCCCN)C(=O)N[C@@H](CCCCN)C(=O)N[C@@H](CC(N)=O)C(=O)N[C@@H](Cc1ccc(O)cc1)C(=O)N[C@@H](C)C(=O)O)[C@@H](C)CC)[C@@H](C)CC [AS15-Pa] (Palmitoyl-SESGIAWGGIKKNYA-OH)	> 128	8	0.5	2	2	
CCCCCCCCCCCCCCCC(=O)N[C@@H](Cc1c[nH]c2ccccc12)C(=O)NCC(=O)NCC(=O)N[C@H](C(=O)N[C@@H](CCCCN)C(=O)N[C@@H](CCCCN)C(=O)N[C@@H](CC(N)=O)C(=O)N[C@@H](Cc1ccc(O)cc1)C(=O)N[C@@H](C)C(=O)O)[C@@H](C)CC [AW9-Pa] (Palmitoyl-WGGIKKNYA-OH)	> 128	8	0.5	2	1	MIC of caspofungin in the presence of 0.5 μg/mL peptide [2]: 8 µg/mL; FIC Index H99 ([2]; Table S1, caspofungin + peptide, H99): 0.5-1; FIC Index ΔCDC50 ([3]; Table S1, caspofungin + peptide): 0.75; MIC ΔCDC50 [5]: 8 µg/mL (≈ 6.28 µM)
CCCCCCCCCCCCCC(=O)N[C@@H](CO)C(=O)N[C@@H](CCC(=O)O)C(=O)N[C@@H](CO)C(=O)NCC(=O)N[C@H](C(=O)N[C@@H](C)C(=O)N[C@@H](Cc1c[nH]c2ccccc12)C(=O)NCC(=O)NCC(=O)O)[C@@H](C)CC [GS9-Ma] (Myristoyl-SESGIAWGG-OH)	> 128					MIC ΔCDC50 [5]: > 128 µg/mL
CCCCCCCCCCCCCC(=O)N[C@@H](Cc1c[nH]c2ccccc12)C(=O)NCC(=O)NCC(=O)N[C@H](C(=O)N[C@@H](C)C(=O)N[C@@H](C)C(=O)N[C@@H](CC(N)=O)C(=O)N[C@@H](Cc1ccc(O)cc1)C(=O)N[C@@H](C)C(=O)O)[C@@H](C)CC [K5A;K6A-Ma] (Myristoyl-WGGIAANYA-OH)						MIC [1]: >128 µg/mL; percentage of cells with low propidium iodine (PI-A < 9 RU) and high AF350-annexin V intensity (Annexin V-A > 9 RU) [4]: 1.3 ± 0.9%
CCCCCCCCCCCCCC(=O)N[C@@H](CO)C(=O)NCC(=O)N[C@H](C(=O)N[C@@H](C)C(=O)N[C@@H](Cc1c[nH]c2ccccc12)C(=O)NCC(=O)NCC(=O)N[C@H](C(=O)N[C@@H](CCCCN)C(=O)O)[C@@H](C)CC)[C@@H](C)CC [KS9-Ma] (Myristoyl-SGIAWGGIK-OH)	> 128					
CCCCCCCCCCCCCC(=O)N[C@@H](Cc1c[nH]c2ccccc12)C(=O)NCC(=O)NCC(=O)N[C@H](C(=O)N[C@@H](C)C(=O)N[C@@H](CCCCN)C(=O)N[C@@H](CC(N)=O)C(=O)N[C@@H](Cc1ccc(O)cc1)C(=O)N[C@@H](C)C(=O)O)[C@@H](C)CC [Peptide K5A-Ma] (Myristoyl-WGGIAKNYA-OH)						MIC [1]: >128 µg/mL; percentage of cells with low propidium iodine (PI-A < 9 RU) and high AF350-annexin V intensity (Annexin V-A > 9 RU) [4]: 5.6 ± 0.1%
CCCCCCCCCCCCCC(=O)N[C@@H](Cc1c[nH]c2ccccc12)C(=O)NCC(=O)NCC(=O)N[C@H](C(=O)N[C@@H](CCCCN)C(=O)N[C@@H](C)C(=O)N[C@@H](CC(N)=O)C(=O)N[C@@H](Cc1ccc(O)cc1)C(=O)N[C@@H](C)C(=O)O)[C@@H](C)CC [Peptide K6A-Ma] (Myristoyl-WGGIKANYA-OH)						MIC [1]: >128 µg/mL
CCCCCCCCCCCCCC(=O)N[C@@H](Cc1ccc(O)cc1)C(=O)N[C@H](C(=O)N[C@@H](CC(=O)O)C(=O)NCC(=O)N[C@@H](Cc1ccccc1)C(=O)N1CCC[C@H]1C(=O)N[C@@H](CC(N)=O)C(=O)N[C@@H](CC(C)C)C(=O)N[C@@H](CCCNC(=N)N)C(=O)N[C@@H](CCC(=O)O)C(=O)N[C@@H](CC(=O)O)C(=O)N[C@@H](CCC(=O)O)C(=O)N[C@@H](Cc1c[nH]cn1)C(=O)N[C@@H](Cc1ccccc1)C(=O)N[C@@H](CCC(N)=O)C(=O)O)C(C)C [QY15-Ma] (Myristoyl-YVDGFPNLREDEHFQ-OH)	> 128	8	0.5	1	0.5	
H-SESGIAWGGIKKNYA-OH [AS15]	> 128	8	0.5	1	0.5	
H-YVDGFPNLREDEHFQ-OH [QY15]	> 128	8	0.5	1	0.5	
